Legend:
[1] = test system: 5-LO; experiment: Test c): ex vivo assay after oral administration, A23187 challenge of blood, LTB4 radioimmunoassay; format: in vivo
Description: c) An ex vivo assay system, which is a variation of test b) above, involving administration of a test compound (usually orally as the suspension produced when a solution of the test compound in dimethylsulphoxide is added to carboxymethylcellulose), blood collection, heparinisation, challenge with A23187 and radioimmunoassay of LTB4 and TxB2. This test provides an indication of the bioavailability of a test compound as an inhibitor of 5-LO or cyclooxygenase.

[2] = test system: cyclooxygenase; experiment: Test b): heparinised human blood, A23187 challenge, TxB2 radioimmunoassay; format: cell-based
Description: (§1) b) An in vitro assay system involving incubating a test compound with heparinised human blood, prior to challenge with the calcium ionophore A23187 and then indirectly measuring the inhibitory effects on 5-LO by assaying the amount of […] using the specific radioimmunoassay described by Carey and Forder (F. Carey and R.A. Forder, Brit. J. Pharmacol. 1985, 84, 34P) which involves the use of a protein-LTB4 conjugate produced using the procedure of Young et alia (Prostaglandins, 1983, 26(4), 605-613). The effects of a test compound on the enzyme cyclooxygenase (which is involved in the alternative metabolic pathway for arachidonic acid and gives rise to prostaglandins, thromboxanes and related metabolites) may be measured at the same time using the specific radioimmunoassay for thromboxane B2 (TxB2) described by Carey and Forder (see above). This test provides an indication of the effects of a test compound against 5-LO and also cyclooxygenase in the presence of blood cells and proteins. It permits the selectivity of the inhibitory effect on 5-LO or cyclooxygenase to be assessed.

[3] = test system: 5-LO; experiment: Test b): heparinised human blood, A23187 challenge, LTB4 radioimmunoassay; format: cell-based
Description: as §1

IC50 [2]: > 40000 nM
IC50 [3]: 200 nM
Structure (SMILES): CO[C@@H]1CCC[C@]1(OC)c1cccc(OCc2ccc3ccccc3c2)c1 (relative stereo) [trans-1,2-dimethoxy-1-[3-(naphth-2-ylmethoxy)phenyl]cyclopentane]
ED50 [1]: < 100 mg/kg
